Laboratory results published in the supplement of paper PMC10307832.

Legend:
Test in all cases: relative viability (nuclei count vs DMSO), 5 days (fraction); higher = more cells survive
Ruboxistaurin = compound: CN(C)C[C@@H]1CCn2cc(c3ccccc32)C2=C(C(=O)NC2=O)c2cn(c3ccccc23)CCO1 [Ruboxistaurin]
Outline: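 Lung cancer cell lines received five library-drug doses (not always all listed) spaced by √10, pinned on vehicle-anchored 1536-well plates after an overnight stay at 37 °C. Five days later, with no medium change, nuclei were Hoechst-stained, imaged at 4× and counted with MetaXpress. Viability is treated-well nuclei relative to vehicle-well nuclei, as a median across plates. Passing plates had control CV below 25% and at least one doubling.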

[1] = compound: CN(C)C[C@@H]1CCn2cc(c3ccccc32)C2=C(C(=O)NC2=O)c2cn(c3ccccc23)CCO1 [Ruboxistaurin] + CS(=O)(=O)CCNCc1ccc(-c2ccc3ncnc(Nc4ccc(OCc5cccc(F)c5)c(Cl)c4)c3c2)o1 [Lapatinib] (partner 2 µM)
Outline: (§1)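 One day after seeding in 1536-well plates, lung cancer cell lines were dosed by pin tool. Dosing was either single-drug or a fixed anchor-drug dose plus five library-drug doses (not always all listed) in √10 steps. After 5 days, nuclei were stained in one fix-and-stain step and counted on 4× images, and relative viability is the nuclei count of treated wells over that of vehicle wells, given as the median of duplicate plates.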

Ruboxistaurin + AZD7762 = compound: CN(C)C[C@@H]1CCn2cc(c3ccccc32)C2=C(C(=O)NC2=O)c2cn(c3ccccc23)CCO1 [Ruboxistaurin] + NC(=O)Nc1cc(-c2cccc(F)c2)sc1C(=O)N[C@H]1CCCNC1 [AZD7762] (partner 0.2 µM)
Outline: as §1

[2] = compound: CN(C)C[C@@H]1CCn2cc(c3ccccc32)C2=C(C(=O)NC2=O)c2cn(c3ccccc23)CCO1 [Ruboxistaurin] + O=C(CCCCCCC(=O)Nc1ccccc1)NO [Vorinostat] (partner 1 µM)
Outline: as §1

[3] = compound: CN(C)C[C@@H]1CCn2cc(c3ccccc32)C2=C(C(=O)NC2=O)c2cn(c3ccccc23)CCO1 [Ruboxistaurin] + CC(=O)Nc1cccc(-n2c(=O)n(C3CC3)c(=O)c3c(Nc4ccc(I)cc4F)n(C)c(=O)c(C)c32)c1 [Trametinib] (partner 0.02 µM)
Outline: as §1

Cell Line	relative viability (Ruboxistaurin; 0.08 µM)	relative viability (Ruboxistaurin; 0.8 µM)	relative viability (Ruboxistaurin; 2.53 µM)	relative viability (Ruboxistaurin; 8 µM)	relative viability ([1]; first compound 0.08 µM)	relative viability ([1]; first compound 0.8 µM)	relative viability ([1]; first compound 2.53 µM)	relative viability ([1]; first compound 8 µM)	relative viability (Ruboxistaurin + AZD7762; first compound 0.08 µM)	relative viability (Ruboxistaurin + AZD7762; first compound 0.8 µM)	relative viability (Ruboxistaurin + AZD7762; first compound 2.53 µM)	relative viability (Ruboxistaurin + AZD7762; first compound 8 µM)	relative viability ([2]; first compound 0.08 µM)	relative viability ([2]; first compound 0.8 µM)	relative viability ([2]; first compound 2.53 µM)	relative viability ([2]; first compound 8 µM)	relative viability ([3]; first compound 0.08 µM)	relative viability ([3]; first compound 0.8 µM)	relative viability ([3]; first compound 2.53 µM)	relative viability ([3]; first compound 8 µM)
ABC-1	1.16	0.951	1.16	0.89	1.48	1.01	1.06	1.47	0.662	0.894	0.771	0.598	1.22	1.11	1.27	1.07	–	–	–	–
NCI-H1703	1.19	0.697	0.876	0.724	1.08	1.06	1.09	0.678	0.111	0.115	0.122	0.119	–	–	–	–	–	–	–	–
COR-L 105	1.08	0.803	0.949	0.782	0.335	0.385	0.365	0.341	–	–	–	–	0.96	0.925	0.842	0.816	0.43	0.364	0.463	0.441
NCI-H661	1.03	0.962	1.05	1.04	0.593	0.451	0.639	0.623	–	–	–	–	0.869	0.773	0.781	0.94	0.667	0.528	0.681	0.703
NCI-H1650	1.24	0.742	1.08	0.886	1.03	0.694	1.09	0.829	–	–	–	–	0.676	0.554	0.685	0.569	0.698	0.447	0.613	0.571
SW 1573	1.16	0.871	1.02	0.907	1.1	1.12	1.18	1.03	–	–	–	–	0.756	0.413	0.809	0.698	0.527	0.491	0.549	0.516
UMC-11	0.964	0.914	0.974	0.762	1.03	0.844	0.875	0.644	–	–	–	–	0.41	0.377	0.388	0.289	0.766	0.623	0.649	0.577
LCLC-103H	0.998	0.887	0.894	0.841	–	–	–	–	0.869	0.744	0.788	0.775	0.823	0.743	0.807	0.75	0.703	0.621	0.633	0.678
NCI-H2342	1.02	0.915	1.06	1.04	–	–	–	–	0.535	0.509	0.529	0.582	0.888	0.69	0.768	0.93	0.799	0.849	0.986	0.95
NCI-H520	1.05	0.901	1.02	0.779	0.904	0.772	0.867	0.864	–	–	–	–	0.883	0.723	0.735	0.672	0.831	0.627	0.808	0.617
SW 900	0.897	0.897	1.14	0.958	–	–	–	–	0.625	0.501	1.09	0.568	0.738	0.47	0.603	0.496	0.785	0.972	0.912	0.693
NCI-H522	0.949	1.05	0.869	0.892	–	–	–	–	0.987	0.804	0.833	0.81	1.01	0.9	1.05	0.931	0.767	0.586	0.754	0.764
NCI-H2023	1.02	0.788	1.08	0.735	0.862	0.679	0.913	0.628	–	–	–	–	0.676	0.546	0.667	0.441	0.668	0.491	0.47	0.405
NCI-H441	1.14	0.936	1.19	0.947	–	–	–	–	1.08	1.1	1.15	1.34	0.953	0.989	0.787	0.724	0.523	0.453	0.529	0.366
NCI-H2228	0.94	0.89	1.01	0.93	1.51	1.1	1.14	0.911	–	–	–	–	0.924	0.424	0.588	0.559	0.517	0.379	0.525	0.368
NCI-H1792	1.09	0.78	0.938	0.796	0.903	0.892	0.916	0.933	0.775	0.576	0.533	0.389	–	–	–	–	0.646	0.336	0.446	0.41
IA-LM	0.959	0.79	0.981	1	0.751	–	1.07	0.789	–	–	–	–	1.13	0.937	0.656	0.939	–	–	–	–
NCI-H1563	1	0.947	1.07	0.886	1.06	0.945	1.04	0.952	–	–	–	–	–	–	–	–	–	–	–	–
